# In BindingDB's records for PubMed 3549712 (University of Chicago, 1987):
# Biological target: Trp operon repressor (Escherichia coli (strain K12), UniProt P0A881)
# Assay: Binding Assay
# From the text: Binding assay of L-trptophan and analogues to trp aporepressor
row,SMILES,Kd [µM]
1,c1ccc2[nH]ccc2c1,25.1
2,"Cn1cc(CC(N)C(=O)O)c2ccccc21 [1-Methyl-L-tryptophan, 8]",26.4
3,"O=C(O)/C=C/c1c[nH]c2ccccc12 [3-Beta-Indole-acrylic acid (Tran), 1]",0.516
4,"NC(Cc1c[nH]c2ccc(O)cc12)C(=O)O [5-Hydroxy-L-tryptophan, 22]",2840
5,"COc1ccc2[nH]cc(CC(N)C(=O)O)c2c1 [5-Methoxyu-L-tryptophan, 11]",30.7
6,"Cc1ccc2[nH]cc(CC(N)C(=O)O)c2c1 [5-Methyl-L-tryptophan, 2]",3.25
7,"Cc1ccc2[nH]cc(CCN)c2c1 [5-Methyl-tryptamine, 10]",28.8
8,"NC(Cc1c[nH]c2cc([N+](=O)[O-])ccc12)C(=O)O [6-Nitro-L-tryptophan, 17]",75.6
9,"NC(Cc1c[nH]c2ncccc12)C(=O)O [7-Aza-L-tryptophan, 21]",466
10,"O=C(O)Cc1c[nH]c2ccccc12 [Indole-3-acetic acid, 16]",72.9
11,"O=C(O)CCCc1c[nH]c2ccccc12 [Indole-3-butyric acid, 3]",5.51
12,"O=C(O)CCc1c[nH]c2ccccc12 [Indole-3-propionic acid, 4]",9.74
13,"c1ccc2c(c1)CCN2 [Indoline, 19]",174
14,"O=C(O)C(O)Cc1c[nH]c2ccccc12 [L-Indole-3-lactic acid, 13]",35.2
15,"NC(Cc1ccccc1)C(=O)O [L-Phenylalanine, 23]",> 3000
16,"COC(=O)C(N)Cc1c[nH]c2ccccc12 [L-Tryptophan methyl ester, 14]",37.1
17,"NC(=O)C(N)Cc1c[nH]c2ccccc12 [L-Tryptophanamide, 9]",27.7
18,"O=CNC(Cc1c[nH]c2ccccc12)C(=O)O [N-Formyl-L-tryptophan, 18]",117
19,"NCCc1c[nH]c2ccccc12 [Tryptamine, 15]",41.1
20,"OCCc1c[nH]c2ccccc12 [Tryptaphol, 6]",23.3
